Drawing on patent US5026832A, “9-dihydro-9-O-alkyldesmycosin derivatives” (Toyo Jozo Co., Ltd., priority 1988, dated 1991), this text covers ED50 and MIC for four compounds.

Converted amounts (≈) assume the structure as drawn.

Assay [1] relates to Staphylococcus pyogenes S-23. The assay is described as follows: Infectious disease curing effect by oral administration in infected mice. The format is in vivo, ICR male mice. The conditions noted are these: Staphylococcus aureus, S23, 120 h; oral, 1 hour after abdominal inoculation of Staphylococcus pyogenes S-23, inspected for 5 days, Van der Waerden method; read-out: ED50. As for the experimental part:
A pre-incubated test microorganism, Staphylococcus pyogenes S-23, was suspended in a 5% mucin solution and inoculated into the ICR male mice (8 mice per group) abdomen in an amount of 2×10^2. After 1 hour, Compounds (I) of the present invention dissolved or suspended in a phosphate buffer were orally administered to the mice. The mice were inspected for 5 days to determine ED50 (mg/kg) by the Van der Waerden method.

The subject of assay [2] is Staphylococcus pyogenes S-23. Kind of assay: Antimicrobial activity (minimum inhibitory concentration). The format is cell-based. The conditions noted are these: Staphylococcus aureus, S23; Staphylococcus pyogenes S-23, about 10^6 /ml. As for the experimental part: (§1) Minimum inhibitory concentrations (MIC, μg/ml) of various compounds of formula (I) against various microorganisms (about 10^6 /ml) were measured.

The test system of assay [3] is Staphylococcus epidermidis sp-al-1. Described as above. It is filed as cell-based. The conditions noted are these: SPAL1; Staphylococcus epidermidis sp-al-1, about 10^6 /ml. The protocol:
as §1

The subject of assay [4] is Staphylococcus aureus FDA 209P JC-1. The description is as above. The format is cell-based. To be noted: FDA209P; Staphylococcus aureus FDA 209P JC-1, about 10^6 /ml. The protocol:
as §1

In assay [5] the test system is Staphylococcus aureus MS 353 C36. The description is as above. The format is cell-based. To be noted: MS353C36; Staphylococcus aureus MS 353 C36, about 10^6 /ml. As for the experimental part: as §1
Assay [6] concerns Staphylococcus pyogenes N.Y.5. Described as above. It is filed as cell-based. To be noted: Staphylococcus pyogenes N.Y.5, about 10^6 /ml. The protocol:
as §1

Assay [7] has as its system Staphylococcus aureus MS 353. Described as above. It is filed as cell-based. The conditions noted are these: MS353; Staphylococcus aureus MS 353, about 10^6 /ml. The protocol: as §1
The test system of assay [8] is Staphylococcus pyogenes 1022. Described as above. To be noted: Staphylococcus pyogenes 1022, about 10^6 /ml. It is filed as cell-based. As for the experimental part: as §1
Assay [9] deals with Staphylococcus aureus Smith. Described as above. To be noted: about 10^6 /ml. The format is cell-based. As for the experimental part:
as §1

`CCOC1C=CC(C)=CC(COC2OC(C)C(O)C(OC)C2OC)C(CC)OC(=O)CC(OC(C)=O)C(C)C(OC2OC(C)C(O)C(N(C)C)C2O)C(CC=O)CC1C` (centres unmarked) [Compound 8, 9-dihydro-9-O-ethyl-3-O-acetyldesmycosin]: in assay [1], the 50% effective dose (ED50) – broadly, the midpoint of the dose-response relation – is 50 mg/kg. Moreover, the MIC (in general, the lowest concentration found to suppress growth) was 0.1 µg/mL (≈ 0.118 µM) in [2]; 0.39 µg/mL (≈ 0.462 µM) in assay [3]; 0.2 µg/mL (≈ 0.237 µM) in [4]; 0.39 µg/mL (≈ 0.462 µM) in assay [5]; 0.1 µg/mL (≈ 0.118 µM) in [6]; 0.39 µg/mL (≈ 0.462 µM) in assay [7]. The MIC in [8] is more than 100 µg/mL; in assay [9], 0.78 µg/mL (≈ 0.924 µM).

Consider `CCC(=O)OC1CC(=O)OC(CC)C(COC2OC(C)C(O)C(OC)C2OC)C=C(C)C=CC(OC)C(C)CC(CC=O)C(OC2OC(C)C(O)C(N(C)C)C2O)C1C` (centres unmarked) [Compound 5, 9-dihydro-9-O-methyl-3-O-propionyldesmycosin], for which, in [1], the median effective dose (ED50) was determined as 84 mg/kg. The MIC is 0.1 µg/mL (≈ 0.118 µM) in assay [2]; 0.2 µg/mL (≈ 0.237 µM) in assay [3]; 0.1 µg/mL (≈ 0.118 µM) in [4]; 0.2 µg/mL (≈ 0.237 µM) in assay [5]; 0.05 µg/mL (≈ 0.0592 µM) in assay [6]; 0.2 µg/mL (≈ 0.237 µM) in assay [7]. For the same compound, the figures for the MIC in [8] and in [9] were 50 µg/mL (≈ 59.2 µM) and 0.39 µg/mL (≈ 0.462 µM), respectively.

Consider `CCC1OC(=O)CC(O)C(C)C(OC2OC(C)CC(N(C)C)C2O)C(CC=O)CC(C)C(OC)C=CC(C)=CC1CN(C)C` (centres unmarked) [Compound 7, 9-dihydro-9-O-methyl-23-demycinosyloxy-23-dimethylamino-4'-deoxydesmycosin], for which the ED50 in assay [1] is 100 to 200 mg/kg. For the same compound, the MIC in [2], in assay [3], in assay [4], in assay [5], in assay [6] and in assay [7] was 0.2 µg/mL (≈ 0.32 µM) throughout. The MIC in [8] is more than 100 µg/mL; in assay [9], 0.78 µg/mL (≈ 1.25 µM).

Take `CCC1OC(=O)CC(O)C(C)C(OC2OC(C)C(O)C(N(C)C)C2O)C(CC=O)CC(C)C(OC)C=CC(C)=CC1COC1OC(C)C(O)C(OC)C1OC` (centres unmarked) [Compound 1, 9-dihydro-9-O-methyldesmycosin]: the ED50 in [1] was in the range of 100 to 200 mg/kg. Moreover, the minimum inhibitory concentration (MIC) in assay [2] was not above 0.05 µg/mL; in assay [3], not above 0.05 µg/mL; in assay [4], 0.1 µg/mL (≈ 0.127 µM); in assay [5], 0.2 µg/mL (≈ 0.254 µM); in assay [6] it was not above 0.05 µg/mL; in assay [7] it was 0.2 µg/mL (≈ 0.254 µM). The compound further gave an MIC in assay [9] of 0.39 µg/mL (≈ 0.495 µM).
